Assay results reported in ChEMBL document CHEMBL1155125 (Bioorg Med Chem Lett, 2008).

Assays:
[1] = target: Cystic fibrosis transmembrane conductance regulator (Homo sapiens, UniProt P13569, F508DEL); test: Agonist activity at CFTR-deltaF508 mutant expressed in NIH3T3 cells assessed as increase in forskolin-stimulated current; assay type: functional, cell-based
[2] = tested on: Cystic fibrosis transmembrane conductance regulator (Homo sapiens), P13569 [F508del]; test: Agonist activity at CFTR-deltaF508 mutant expressed in NIH3T3 cells assessed as increase in forskolin-stimulated current at 30 uM by whole cell assay relative to control; assay type: functional, cell-based
Cystic fibrosis transmembrane conductance regulator (Homo sapiens), P13569 [F508del], sequence (P13569 as listed by the source): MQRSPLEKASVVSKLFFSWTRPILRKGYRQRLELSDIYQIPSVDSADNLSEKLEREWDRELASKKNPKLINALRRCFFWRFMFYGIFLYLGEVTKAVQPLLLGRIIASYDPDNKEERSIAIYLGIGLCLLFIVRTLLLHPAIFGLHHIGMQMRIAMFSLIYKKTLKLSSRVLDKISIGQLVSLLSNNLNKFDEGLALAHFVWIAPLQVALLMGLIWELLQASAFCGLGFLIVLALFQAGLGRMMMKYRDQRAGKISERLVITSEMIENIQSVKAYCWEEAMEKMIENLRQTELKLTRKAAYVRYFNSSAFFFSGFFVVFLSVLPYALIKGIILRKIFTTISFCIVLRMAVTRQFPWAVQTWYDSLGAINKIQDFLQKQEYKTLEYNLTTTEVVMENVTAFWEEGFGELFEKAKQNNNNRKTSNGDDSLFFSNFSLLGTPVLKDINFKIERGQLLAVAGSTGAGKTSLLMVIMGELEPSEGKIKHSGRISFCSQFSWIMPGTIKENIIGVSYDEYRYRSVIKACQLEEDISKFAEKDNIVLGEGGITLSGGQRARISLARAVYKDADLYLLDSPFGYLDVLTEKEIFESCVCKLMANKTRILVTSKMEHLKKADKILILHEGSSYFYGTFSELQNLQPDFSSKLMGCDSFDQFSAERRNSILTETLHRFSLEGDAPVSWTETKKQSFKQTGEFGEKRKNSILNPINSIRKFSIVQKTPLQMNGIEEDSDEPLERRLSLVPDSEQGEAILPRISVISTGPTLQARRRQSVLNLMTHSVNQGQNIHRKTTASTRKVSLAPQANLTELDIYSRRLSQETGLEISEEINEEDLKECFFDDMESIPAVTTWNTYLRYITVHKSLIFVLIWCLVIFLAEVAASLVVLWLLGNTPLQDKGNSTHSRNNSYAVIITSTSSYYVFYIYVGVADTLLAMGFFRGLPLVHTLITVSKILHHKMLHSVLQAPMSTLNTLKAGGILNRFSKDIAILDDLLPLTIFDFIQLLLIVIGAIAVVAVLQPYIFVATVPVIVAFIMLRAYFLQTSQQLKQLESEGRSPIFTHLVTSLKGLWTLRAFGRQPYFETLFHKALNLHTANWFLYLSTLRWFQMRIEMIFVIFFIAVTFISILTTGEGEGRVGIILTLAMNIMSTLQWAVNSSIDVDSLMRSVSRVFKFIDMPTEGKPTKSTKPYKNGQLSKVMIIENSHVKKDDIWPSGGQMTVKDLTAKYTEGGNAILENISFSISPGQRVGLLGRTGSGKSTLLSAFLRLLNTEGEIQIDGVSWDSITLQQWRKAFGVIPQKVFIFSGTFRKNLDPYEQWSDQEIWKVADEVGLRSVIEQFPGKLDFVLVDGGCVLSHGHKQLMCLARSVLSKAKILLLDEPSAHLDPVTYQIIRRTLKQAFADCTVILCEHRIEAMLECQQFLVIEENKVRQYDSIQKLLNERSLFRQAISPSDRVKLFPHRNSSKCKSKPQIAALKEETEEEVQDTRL

[3] = tested on: Cystic fibrosis transmembrane conductance regulator (Homo sapiens), P13569 [F508del]; test: Agonist activity at CFTR-deltaF508 mutant expressed in NIH3T3 cells assessed as increase in forskolin-stimulated current at 30 uM by whole cell assay relative to genistein; assay type: functional, cell-based
[4] = tested on: Cystic fibrosis transmembrane conductance regulator (Homo sapiens), P13569 [K1250A]; test: Agonist activity at CFTR-K1250A mutant assessed as increase in forskolin-stimulated current at 5 uM; assay type: functional
Cystic fibrosis transmembrane conductance regulator (Homo sapiens), P13569 [K1250A], sequence (P13569 whole entry K1250A): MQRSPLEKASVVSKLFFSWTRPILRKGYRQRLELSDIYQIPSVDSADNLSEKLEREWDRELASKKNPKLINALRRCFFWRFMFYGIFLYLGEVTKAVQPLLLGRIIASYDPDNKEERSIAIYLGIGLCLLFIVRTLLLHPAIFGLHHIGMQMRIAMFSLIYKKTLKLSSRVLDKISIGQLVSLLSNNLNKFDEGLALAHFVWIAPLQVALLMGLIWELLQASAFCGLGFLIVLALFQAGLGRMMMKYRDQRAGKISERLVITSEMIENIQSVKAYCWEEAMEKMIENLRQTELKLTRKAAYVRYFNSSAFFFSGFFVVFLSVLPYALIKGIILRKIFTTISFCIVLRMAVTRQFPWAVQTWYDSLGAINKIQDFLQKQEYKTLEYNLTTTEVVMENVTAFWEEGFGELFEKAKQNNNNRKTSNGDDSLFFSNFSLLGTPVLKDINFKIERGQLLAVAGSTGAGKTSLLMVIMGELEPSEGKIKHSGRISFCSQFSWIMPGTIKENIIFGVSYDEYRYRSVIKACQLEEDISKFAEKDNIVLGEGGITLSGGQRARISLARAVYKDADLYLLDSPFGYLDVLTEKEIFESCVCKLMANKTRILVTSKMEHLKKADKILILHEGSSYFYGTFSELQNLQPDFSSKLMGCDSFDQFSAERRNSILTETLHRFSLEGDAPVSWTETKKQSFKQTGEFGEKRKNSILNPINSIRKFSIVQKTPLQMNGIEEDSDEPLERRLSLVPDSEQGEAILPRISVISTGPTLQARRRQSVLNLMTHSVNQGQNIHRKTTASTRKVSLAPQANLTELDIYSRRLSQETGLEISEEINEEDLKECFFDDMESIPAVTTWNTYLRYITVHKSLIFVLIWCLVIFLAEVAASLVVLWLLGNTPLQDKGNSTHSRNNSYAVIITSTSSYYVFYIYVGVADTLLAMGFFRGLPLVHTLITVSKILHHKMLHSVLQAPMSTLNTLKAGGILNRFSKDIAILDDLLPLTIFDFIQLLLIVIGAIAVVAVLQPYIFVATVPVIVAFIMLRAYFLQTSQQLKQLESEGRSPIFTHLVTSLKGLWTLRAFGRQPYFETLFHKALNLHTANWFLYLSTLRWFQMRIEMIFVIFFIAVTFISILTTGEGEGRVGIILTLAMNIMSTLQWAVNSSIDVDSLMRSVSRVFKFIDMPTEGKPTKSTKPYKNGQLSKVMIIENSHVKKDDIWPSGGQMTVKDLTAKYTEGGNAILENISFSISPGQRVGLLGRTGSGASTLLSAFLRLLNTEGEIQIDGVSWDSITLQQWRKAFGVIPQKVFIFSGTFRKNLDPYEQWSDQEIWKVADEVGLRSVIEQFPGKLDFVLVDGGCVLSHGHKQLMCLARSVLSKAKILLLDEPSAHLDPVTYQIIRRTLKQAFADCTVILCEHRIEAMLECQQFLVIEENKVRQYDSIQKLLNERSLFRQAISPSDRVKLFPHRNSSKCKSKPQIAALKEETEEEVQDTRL

[5] = tested on: Cystic fibrosis transmembrane conductance regulator (Homo sapiens), P13569 [F508del]; test: Agonist activity at CFTR-deltaF508 mutant expressed in NIH3T3 cells assessed as increase in forskolin-stimulated current at 20 uM by whole cell assay relative to control; assay type: functional, cell-based

Cystic fibrosis transmembrane conductance regulator, sequence (P13569 as listed by the source): as the sequence (P13569 as listed by the source) above

O=c1cc(-c2ccncc2)oc2c1ccc1ccccc12
EC50 [1]: 3.5 µM
fold change (FC) [2]: 3.76
Activity [3]: 31%
fold change (FC) [4]: 1.11
fold change (FC) [5]: 3.69

O=c1c(-c2ccc(O)cc2)coc2cc(O)cc(O)c12
fold change (FC) [5]: 8.29
